pEC50, pIC50: −log10 of the molar value. Activity calls are given as the source filed them.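 Rule for the calls: active = compounds giving half or more protection of infected cells from virus-caused growth loss, again on retest; inactive = the rest.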 Where a SMILES comes first, the peptide text is derived from it.
Test system: CEM cells HIV-1 protection, formazan growth assay
Experiment: NCI AIDS Antiviral Assay
Settings: for pIC50: measured here: growth of uninfected CEM cells
Method in brief: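 Human CEM cells, uninfected and HIV-1-infected, exposed to five drug concentrations; growth measured by soluble formazan assay and scored as percent protection from infection, with protecting compounds retested.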

Compound	pEC50	pIC50	outcome
CCOC(=O)c1cc(-c2ccccn2)c(=O)n2ccccc12	< 3.70	4.31	
C[Si](C)(C)C(Sc1ccccc1)(Sc1ccccc1)Sc1ccccc1			inactive
OC1CN=C2c3ccccc3C(O)(c3ccc(Cl)cc3)N2C1 (stereo unspecified)	< 3.70	4.35	
N#Cc1c(O)c(C=O)c(=O)n2c1[nH]c1ccccc12	< 3.70	3.77	
O=C(OCc1ccccc1)N1CC[C@@H](O)[C@@H](CNC23CC4CC(CC(C4)C2)C3)C1	< 3.20	4.63	
O=C1CCCC/C1=C(\Br)I			inactive
CC(C)(C)[Si](OC[C@H]1OC(=O)[C@@H]2CN(Cc3ccccc3)C[C@H]12)(c1ccccc1)c1ccccc1	< 5.11	< 5.11	
Cc1ccc(-c2nc3ccccc3c(=O)n2NC2OC(CO)C(O)C(O)C2O)cc1 (stereo unspecified)			inactive
Cc1ccc(C(=C2Sc3ccccc3S2)C(=C2Sc3ccccc3S2)c2ccc(C)s2)s1	< 3.70	< 3.70	
CC(C)C(NC(=O)c1ccccc1SC(=O)CCCC[n+]1ccccc1)C(N)=O (stereo unspecified)	5.98	5.06	
Oc1cc(O)c2c(c1)O[C@H](c1cc(O)c(O)c(O)c1)[C@H](O)C2	< 3.70	6.16	
CC1=C(C(=O)Nc2c(C)cccc2C)C(c2ccccc2Cl)C(C(=O)Nc2c(C)cccc2C)=C(C)N1	< 3.45	3.49	
C1=CN2C(c3ccccc3)=NON(c3ncccn3)C2N=C1 (stereo unspecified)	< 4.33	< 4.33	
CC[C@@]1(O)C(=O)OCc2c1cc1n(c2=O)Cc2cc3cc4c(cc3nc2-1)OCO4	< 8.70	9.48	
Cn1ccnc1.[O-][Cl+3]([O-])([O-])[O-].[Pt+2].c1ccc(-c2cccc(-c3ccccn3)n2)nc1	< 3.70	4.87	
O=C1NNC2(C(=O)N1)c1ccccc1-c1ccccc12	< 3.70	4.03	
COc1ccc2nc3cc(Cl)ccc3c(Nc3ccccc3-c3ccccc3Nc3c4ccc(Cl)cc4nc4ccc(OC)cc34)c2c1	< 5.39	< 5.39	
CC(C)CCCC(C)[C@H]1CC[C@H]2[C@@H]3CC[C@H]4C[C@@H](CCC=C(c5cc(Cl)c(OC(=O)c6ccccc6)c(C(=O)O)c5)c5cc(Cl)c(OC(=O)c6ccccc6)c(C(=O)O)c5)CC[C@]4(C)[C@H]3CC[C@]12C (stereo partly specified)	< 3.70	< 3.70	
CN(/N=C\c1ccccc1Cl)C(c1ccccc1Cl)N(C)/N=C/c1ccccc1Cl (stereo unspecified)			inactive
CCCNC(=O)c1cc2ccccc2cc1C(=O)OC	< 5.27	< 5.27	
O=C1Cc2c([nH]c3ccccc23)-c2ccccc2N1	< 3.98	4.16	

Compound	pEC50	pIC50	outcome
Cc1ccc(-c2cc(=O)c3cc(C)c(C)c(C(=O)O)c3o2)cc1			inactive
C=C1CC2(CCOc3ccccc32)OC1=O (stereo unspecified)	< 3.06	5.36	
COc1ccc(C2S/C(=C\c3ccc(O)cc3)C(=O)N2NC(=O)Cc2ccccc2)cc1 (stereo unspecified)	< 3.95	< 3.95	
C=C1C(=O)[C@]23C[C@H]1CC(O)[C@H]2C1(CCC[C@@](C)(COC(C)=O)C1C=O)COC3=O (stereo partly specified)			inactive
CC(=O)/C=C/c1ccco1	< 4.58	< 4.58	
Cc1cnc2sn(-c3ccc([N+](=O)[O-])cc3)c(=O)c2c1	5.12	3.97	
Cc1cccc(N=C2NC(=O)C(CC(=O)Nc3ccccc3Cl)S2)c1 (stereo unspecified)	< 5.00	< 5.00	
COc1ccc(C(CC(=O)O)c2ccccc2)cc1 (stereo unspecified)	< 3.15	3.30	
Cc1cc2c(c3oc(C4(C)OC4C4OC4C)cc(=O)c13)C(=O)c1c(O)c(C3CC(C)(N(C)C)C(O)C(C)O3)cc(C3CC(N(C)C)C(O)C(C)O3)c1C2=O (stereo unspecified)	< 8.70	10.02	
O=C(CNC(=O)c1cnc2ccccc2n1)NCCCNC(=O)CNC(=O)c1cnc2ccccc2n1	< 4.00	< 4.00	
C1CCC(OCc2nnn3c2CCC3)OC1 (stereo unspecified)			inactive
O=C(CN1CCOCC1)c1ccc2c(c1)oc(=O)n2CCN1CCCC1	< 3.70	4.02	
CC(C)CC(NC(=O)C(CO)NC(=O)C(CCCCN)NC(=O)C(CCCCN)NC(=O)C(NC(=O)CNC(=O)C(NC(=O)C(CO)NC(=O)C(NC(=O)C(NC(=O)C(CO)NC(=O)C(CC(N)=O)NC(=O)C(N)CCC(N)=O)C(C)C)C(C)C)C(C)O)C(C)C)C(=O)NC(Cc1ccccc1)C(=O)NC(CCC(N)=O)C(=O)O (stereo unspecified) (H-QNSVVSTGVKKSLFQ-OH; configuration not given here)			inactive
O=C(O)c1ccc(SSc2ccc(C(=O)O)cc2)cc1	3.91	< 3.70	
S=C1C(=Nc2ccccc2)N(c2ccccc2)/C(=N\c2cccc[n+]2Cc2ccccc2)N1c1ccccc1	4.81	4.56	
COc1cc2c(cc1OCCCCCN1C(=O)c3cccc4cccc(c34)C1=O)N=C[C@@H]1CCCN1C2=O	< 5.70	5.96	
N=C(N)c1ccc(OCCCCCOc2ccc(C(=N)N)cc2)cc1	< 4.69	5.89	
O=C1C(=O)N(c2ccc(Cl)c(Cl)c2)C(=O)C(=O)C1c1nc2ccccc2o1			inactive
O=C1/C(=N\O)C(c2ccccc2)Oc2ccccc21 (stereo unspecified)	4.68	4.42	
CCN=C(N)C(C)SS(=O)(=O)O (stereo unspecified)	< 3.70	3.77	
CC1=CC(=O)N2CCN=C2S1	< 3.70	< 3.70	

Compound	pEC50	pIC50	outcome
Cc1[se]c(N)nc1-c1ccccc1			inactive
C=C[C@H]1[C@@H]2CCC3=CC(=O)CC[C@@H]3C2CC[C@]1(C)C(=O)O (stereo partly specified)	< 3.70	< 3.70	
CCC1(c2ccccc2)C(=O)N=C(c2ccccc2)N1CCc1ccccc1 (stereo unspecified)	< 3.70	< 3.70	
COP(=O)(OC)/C(=C/c1cn(C(c2ccccc2)(c2ccccc2)c2ccccc2)cn1)NC=O	< 3.70	< 3.70	
CCc1c(Cc2ccccc2)n(COCCC[Se]c2ccccc2)c(=O)[nH]c1=O	5.55	4.74	
COc1cc(-c2[o+]c3cc(O)cc(OC4OC(CO)C(O)C(O)C4O)c3cc2OC2OC(CO)C(O)C(O)C2O)cc(OC)c1O (stereo unspecified)	< 4.17	4.39	
Cc1cccnc1NC(=O)NCCCl	< 3.70	< 3.70	
C=C1C(=O)OC2/C=C(\CO)C(OC(C)=O)CC(O)/C(C)=C/C(OC(=O)C(C)CC)C12 (stereo unspecified)			inactive
O=S1(=O)CC2C(C1)C1(c3ccccc3)OC2(c2ccccc2)c2ccccc21 (stereo unspecified)			inactive
COc1cc2cnc3c4cc(OCc5ccccc5)ccc4ccc3c2cc1OC	< 5.18	< 5.18	
CN(C)/C=C\c1c([N+](=O)[O-])ncn1C	< 3.70	< 3.70	
Nc1nc(N)c2ncn(CCOC(c3ccccc3)P(=O)(O)O)c2n1 (stereo unspecified)	< 3.70	< 3.70	
CC(=O)Nc1ccc(S(=O)(=O)N/N=C/c2ccco2)cc1	< 3.23	3.51	
O=C(/C=C\c1cccc2ccccc12)c1ccc(F)cc1	< 5.14	< 5.14	
Cc1nc2ccc(N=NN(C)C)cc2[nH]1	< 3.70	< 3.70	
CCCCCCCCNC(=O)/C(=C\c1ccc2c(c1)OCO2)NC(=O)c1ccccc1	< 4.23	4.34	
c1ccc(N=C2SC(=NNc3ccccc3)SC2=Nc2ccccc2)cc1	< 3.70	< 3.70	
COc1cc(C2c3cc4c(cc3[C@H](NC(=O)c3cccs3)C3COC(=O)[C@H]23)OCO4)cc(OC)c1OC (stereo partly specified)			inactive
CCOC(=O)C1(Cc2c[nH]c3ccccc23)C(O)CCCN1C(C)=O (stereo unspecified)	< 3.70	3.81	
CN(C)c1ccc(/C=C(\NC(=O)c2ccccc2)C2NC(Cc3c[nH]c4ccccc34)C(=O)O2)cc1 (stereo unspecified)	< 4.00	5.06	
COC1C(/C(=N\O)n2cnc3c(Cl)ncnc32)OC2OC(C)(C)OC21 (stereo unspecified)	< 3.70	< 4.00	

Compound	pEC50	pIC50	outcome
N#C/C(C(=N)c1ccccc1)=C1\SS/C(=C(\C#N)C(=N)c2ccccc2)S1	< 3.70	5.22	
O=C(/C=C/c1ccsc1)c1cccs1	< 3.70	5.45	
CCCOC(C(=O)OC1CCC2CCC1N2C)(c1ccccc1)c1ccccc1 (stereo unspecified)	< 3.70	4.54	
CCN(CC)CCn1c(=O)c2ccccc2n2c3c(=O)n(C)c(=O)n(C)c3nc12	< 4.70	5.73	
CC(C)(C)Cc1cc(O)ccc1O	< 5.22	5.47	
O=CNc1ccc(S(=O)(=O)c2ccc([N+](=O)[O-])cc2)cc1	< 3.70	4.52	
COc1c(Cl)cc(Cl)cc1S(=O)O			inactive
Cc1ccccc1Nc1nc2c(s1)C(=O)c1ccccc1C2=O			inactive
COc1cc(OC)cc(-c2cc(=O)c3c(OC)c(OC)c(OC)c(OC)c3o2)c1	< 3.70	4.57	
Cc1cccc(O)c1-c1nnc(CCCCCCCCc2nnc(-c3c(C)cccc3O)n2N)n1N	< 3.70	5.53	
Cc1ccccc1-n1c(SCC(=O)NC(=O)Nc2cccc(Cl)c2)nc2c(Br)cc(Br)cc2c1=O	< 3.70	< 3.70	
CC(CO)C1=C(c2c[nH]c3ccccc23)C2C(C)C[C@H](O)C3(C)C(C)CCC(O)C23CC1 (stereo partly specified)			inactive
N/N=c1\c2ccccc2c2ccc3c4ccccc4/c(=N\N)c3c12	< 4.94	< 4.94	
OC[C@H](O)[C@@H](OCc1ccccc1)[C@H](NCc1ccccc1)c1cccs1	< 3.70	4.01	
CCOC(=O)c1ccc(NC(NC(=O)CC)(C(F)(F)F)C(F)(F)F)cc1	< 3.70	4.61	
COC(=O)c1noc2c1CSC1=C2CS(=O)(=O)c2ccccc21	< 3.70	< 3.70	
O=c1ccc2cc3ccoc3c(O)c2o1	< 3.35	3.87	
c1ccc(CCN(Cc2nc3ccccc3[nH]2)Cc2nc3ccccc3[nH]2)cc1	< 3.70	4.98	
CCC12OC(COc3ccccc3)CN1CCS2 (stereo unspecified)	< 3.59	3.88	
CC1=NN(C(=O)c2ccc([N+](=O)[O-])cc2)C(=O)C1N=Nc1ccccc1C(=O)O (stereo unspecified)			inactive
CCc1n[nH]c(=O)n1N1C(=O)C2CC=CCC2C1=O (stereo unspecified)	< 3.70	< 3.70	

Reference: PubChem BioAssay AID179 (DTP/NCI, 2004)
